Assay results as given in ChEMBL document CHEMBL5724696, “Autophagy assay results for EUbOPEN Chemogenomics Library” (2024).

How the values were obtained:
Format in all cases: functional, Homo sapiens
[1] = test system: TERT-RPE1; experiment: (§1) Here: values are normalized to the negative (DMSO; defined as 0% autophagy induction) and positive (250nM Torin1; mTOR inhibitor; defined as maximal inducer of autophagy = 100%) control compounds and represented as % of autophagy induction. […] The impact of autophagy induction on cells is complex and depends on the affected target. As such, the magnitude of a phenotype may not be equally mirrored in the %-value of autophagy induction and vice versa. The dynamics of the induction may indicate the mode of activation: e.g. activation via phosphorylation or a signaling cascade may occur fast, while activation via transcription factors may take considerably longer. […] Of note, treatment concentrations may be sub-optimal for specific compounds, leading to false negative annotations.; conditions: Culturing Media DMEM/F12 (1:1), 1 % Penicillin/Streptomycin, 10% Fetal bovin serum Add-On: No, Screening Media Control DMEM/F12 (1:1), Screening Media Samples DMEM/F12 (1:1)
[2] = test system: U2OS; experiment: as §1; conditions: Culturing Media DMEM, 1 % Penicillin/Streptomycin, 10% Fetal bovin serum Add-On: No, Screening Media Control DMEM, Screening Media Samples DMEM
[3] = test system: U2OS; experiment: as §1; conditions: Culturing Media DMEM, 1 % Penicillin/Streptomycin, 10% Fetal bovin serum Add-On: No, Screening Media Control DMEM, Screening Media Samples DMEM; remark: listed apart in the source
[4] = Compound Concentration 0.5 uM, Timepoint 12 hours
[5] = Compound Concentration 0.5 uM, Timepoint 24 hours
[6] = Compound Concentration 0.5 uM, Timepoint 36 hours
[7] = Compound Concentration 0.5 uM, Timepoint 60 hours
[8] = Compound Concentration 2 uM, Timepoint 12 hours
[9] = Compound Concentration 2 uM, Timepoint 24 hours
[10] = Compound Concentration 2 uM, Timepoint 36 hours
[11] = Compound Concentration 2 uM, Timepoint 60 hours
[12] = Compound Concentration 10 uM, Timepoint 12 hours
[13] = Compound Concentration 10 uM, Timepoint 24 hours
[14] = Compound Concentration 10 uM, Timepoint 36 hours
[15] = Compound Concentration 10 uM, Timepoint 60 hours

Q: For `CN(C(=O)Cc1ccc(Cl)c(Cl)c1)C(CN1CCCC1)c1cccc(OCC(=O)O)c1.Cl` (centres undefined), which autophagy induction [1, 4] is on record?
A: -10.9051%

Q: And the autophagy induction [1, 5]?
A: -12.2301%

Q: And the autophagy induction [1, 6]?
A: -15.6398%

Q: And the autophagy induction [1, 7]?
A: -20.341%

Q: What about the autophagy induction [1, 8] of the same compound?
A: -5.691%

Q: And the autophagy induction [1, 9]?
A: -6.772%

Q: And the autophagy induction [1, 10]?
A: -9.058%

Q: What about the autophagy induction [1, 11] of the same compound?
A: -11.2679%

Q: What about the autophagy induction [1, 12] of the same compound?
A: -5.196%

Q: And the autophagy induction [1, 13]?
A: -4.57%

Q: What about the autophagy induction [1, 14] of the same compound?
A: -3.728%

Q: What about the autophagy induction [1, 15] of the same compound?
A: -2.992%

Q: What about the autophagy induction [2, 4] of the same compound?
A: -12.8922%

Q: And the autophagy induction [2, 5]?
A: -7.849%

Q: And the autophagy induction [2, 6]?
A: -3.698%

Q: And the autophagy induction [2, 7]?
A: -1.542%

Q: And the autophagy induction [2, 8]?
A: -9.267%

Q: And the autophagy induction [2, 9]?
A: -3.553%

Q: What about the autophagy induction [2, 10] of the same compound?
A: -1.479%

Q: What about the autophagy induction [2, 11] of the same compound?
A: -2.0456%

Q: What about the autophagy induction [2, 12] of the same compound?
A: -0.2023%

Q: And the autophagy induction [2, 13]?
A: 1.762%

Q: What about the autophagy induction [2, 14] of the same compound?
A: 0.1182%

Q: What about the autophagy induction [2, 15] of the same compound?
A: 0.3636%

Q: And the autophagy induction [3, 4]?
A: 2.144%

Q: And the autophagy induction [3, 5]?
A: -2.707%

Q: And the autophagy induction [3, 6]?
A: 1.07%

Q: And the autophagy induction [3, 7]?
A: 1.175%

Q: And the autophagy induction [3, 8]?
A: -9.959%

Q: What about the autophagy induction [3, 9] of the same compound?
A: -4.957%

Q: And the autophagy induction [3, 10]?
A: -10.0899%

Q: What about the autophagy induction [3, 11] of the same compound?
A: -9.274%

Q: And the autophagy induction [3, 12]?
A: -7.228%

Q: What about the autophagy induction [3, 13] of the same compound?
A: -6.505%

Q: What about the autophagy induction [3, 14] of the same compound?
A: 0.1565%

Q: What about the autophagy induction [3, 15] of the same compound?
A: 0.07233%

Q: `N#Cc1cccc(C(=O)Nc2cc(-c3ccccc3)nn2-c2ccccc2)c1` was tested. Which autophagy induction [1, 4] did it give?
A: -7.699%

Q: What about the autophagy induction [1, 5] of the same compound?
A: -6.069%

Q: And the autophagy induction [1, 6]?
A: 3.327%

Q: What about the autophagy induction [1, 7] of the same compound?
A: 19.4837%

Q: And the autophagy induction [1, 8]?
A: -8.111%

Q: And the autophagy induction [1, 9]?
A: -9.075%

Q: And the autophagy induction [1, 10]?
A: -9.172%

Q: And the autophagy induction [1, 11]?
A: -3.858%

Q: What about the autophagy induction [1, 12] of the same compound?
A: -3.603%

Q: What about the autophagy induction [1, 13] of the same compound?
A: -4.896%

Q: And the autophagy induction [1, 14]?
A: -4.571%

Q: And the autophagy induction [1, 15]?
A: -1.999%

Q: What about the autophagy induction [2, 4] of the same compound?
A: -5.641%

Q: What about the autophagy induction [2, 5] of the same compound?
A: -2.328%

Q: What about the autophagy induction [2, 6] of the same compound?
A: -2.122%

Q: And the autophagy induction [2, 7]?
A: -3.431%

Q: And the autophagy induction [2, 8]?
A: 0.2801%

Q: And the autophagy induction [2, 9]?
A: -3.069%

Q: And the autophagy induction [2, 10]?
A: -2.148%

Q: What about the autophagy induction [2, 11] of the same compound?
A: -2.332%

Q: What about the autophagy induction [2, 12] of the same compound?
A: -0.7756%

Q: What about the autophagy induction [2, 13] of the same compound?
A: -1.607%

Q: What about the autophagy induction [2, 14] of the same compound?
A: -0.5457%

Q: What about the autophagy induction [2, 15] of the same compound?
A: -0.9476%

Q: And the autophagy induction [3, 4]?
A: 0.2338%

Q: What about the autophagy induction [3, 5] of the same compound?
A: 1.876%

Q: What about the autophagy induction [3, 6] of the same compound?
A: 9.199%

Q: And the autophagy induction [3, 7]?
A: 8.756%

Q: And the autophagy induction [3, 8]?
A: -6.937%

Q: And the autophagy induction [3, 9]?
A: -1.593%

Q: What about the autophagy induction [3, 10] of the same compound?
A: 2.3802%

Q: And the autophagy induction [3, 11]?
A: -5.115%

Q: And the autophagy induction [3, 12]?
A: 0.7229%

Q: What about the autophagy induction [3, 13] of the same compound?
A: 5.625%

Q: And the autophagy induction [3, 14]?
A: -1.742%

Q: What about the autophagy induction [3, 15] of the same compound?
A: -2.793%

Q: With `CN(C)S(=O)(=O)c1ccc(NC(=S)N2CCC(C(O)(c3ccccc3)c3ccccc3)CC2)cc1` as the compound, how does the autophagy induction [1, 4] read?
A: -8.089%

Q: And the autophagy induction [1, 5]?
A: -8.809%

Q: And the autophagy induction [1, 6]?
A: -7.846%

Q: And the autophagy induction [1, 7]?
A: -8.279%

Q: And the autophagy induction [1, 8]?
A: -6.98%

Q: What about the autophagy induction [1, 9] of the same compound?
A: -8.186%

Q: And the autophagy induction [1, 10]?
A: -8.002%

Q: What about the autophagy induction [1, 11] of the same compound?
A: -9.897%

Q: What about the autophagy induction [1, 12] of the same compound?
A: -4.6942%

Q: And the autophagy induction [1, 13]?
A: -5.029%

Q: What about the autophagy induction [1, 14] of the same compound?
A: -1.466%

Q: What about the autophagy induction [1, 15] of the same compound?
A: -2.059%

Q: And the autophagy induction [2, 4]?
A: -3.164%

Q: And the autophagy induction [2, 5]?
A: 1.478%

Q: What about the autophagy induction [2, 6] of the same compound?
A: 0.3125%

Q: What about the autophagy induction [2, 7] of the same compound?
A: 1.161%

Q: What about the autophagy induction [2, 8] of the same compound?
A: -4.133%

Q: And the autophagy induction [2, 9]?
A: -2.924%

Q: What about the autophagy induction [2, 10] of the same compound?
A: -1.588%

Q: And the autophagy induction [2, 11]?
A: -1.351%

Q: What about the autophagy induction [2, 12] of the same compound?
A: -4.693%

Q: And the autophagy induction [2, 13]?
A: -0.2636%

Q: What about the autophagy induction [2, 14] of the same compound?
A: 0.0362%

Q: And the autophagy induction [2, 15]?
A: -2.232%

Q: And the autophagy induction [3, 4]?
A: 4.873%

Q: And the autophagy induction [3, 5]?
A: 8.285%

Q: And the autophagy induction [3, 6]?
A: -1.545%

Q: And the autophagy induction [3, 7]?
A: -6.741%

Q: What about the autophagy induction [3, 8] of the same compound?
A: -9.723%

Q: What about the autophagy induction [3, 9] of the same compound?
A: -10.0932%

Q: And the autophagy induction [3, 10]?
A: -2.641%

Q: And the autophagy induction [3, 11]?
A: -5.443%

Q: What about the autophagy induction [3, 12] of the same compound?
A: -2.358%

Q: What about the autophagy induction [3, 13] of the same compound?
A: -3.276%

Q: What about the autophagy induction [3, 14] of the same compound?
A: -0.5558%

Q: What about the autophagy induction [3, 15] of the same compound?
A: -1.95%

Q: With `CC(C)NC(=O)c1ccc(C#Cc2ccncc2)cn1` as the compound, how does the autophagy induction [1, 4] read?
A: -8.654%

Q: And the autophagy induction [1, 5]?
A: -9.257%

Q: And the autophagy induction [1, 6]?
A: -14.0532%

Q: And the autophagy induction [1, 7]?
A: -16.4507%

Q: What about the autophagy induction [1, 8] of the same compound?
A: -4.036%

Q: And the autophagy induction [1, 9]?
A: -5.1239%

Q: What about the autophagy induction [1, 10] of the same compound?
A: -6.815%

Q: And the autophagy induction [1, 11]?
A: -8.286%

Q: What about the autophagy induction [1, 12] of the same compound?
A: 1.565%

Q: And the autophagy induction [1, 13]?
A: 2.778%

Q: And the autophagy induction [1, 14]?
A: 9.008%

Q: And the autophagy induction [1, 15]?
A: 16.9694%

Q: What about the autophagy induction [2, 4] of the same compound?
A: -9.113%

Q: What about the autophagy induction [2, 5] of the same compound?
A: -5.012%

Q: What about the autophagy induction [2, 6] of the same compound?
A: -3.818%

Q: What about the autophagy induction [2, 7] of the same compound?
A: -1.861%

Q: What about the autophagy induction [2, 8] of the same compound?
A: -10.7877%

Q: What about the autophagy induction [2, 9] of the same compound?
A: -3.358%

Q: And the autophagy induction [2, 10]?
A: -2.622%

Q: What about the autophagy induction [2, 11] of the same compound?
A: -1.746%

Q: And the autophagy induction [2, 12]?
A: -0.7026%

Q: What about the autophagy induction [2, 13] of the same compound?
A: -0.9948%

Q: And the autophagy induction [2, 14]?
A: -1.134%

Q: And the autophagy induction [2, 15]?
A: -0.8185%

Q: What about the autophagy induction [3, 4] of the same compound?
A: 0.5322%

Q: What about the autophagy induction [3, 5] of the same compound?
A: 0.2252%

Q: What about the autophagy induction [3, 6] of the same compound?
A: -0.5555%

Q: And the autophagy induction [3, 7]?
A: 0.1744%

Q: And the autophagy induction [3, 8]?
A: 1.689%

Q: What about the autophagy induction [3, 9] of the same compound?
A: 1.76%

Q: And the autophagy induction [3, 10]?
A: 0.3174%

Q: And the autophagy induction [3, 11]?
A: -4.895%

Q: What about the autophagy induction [3, 12] of the same compound?
A: -23.095%

Q: And the autophagy induction [3, 13]?
A: -7.509%

Q: And the autophagy induction [3, 14]?
A: -0.1897%

Q: And the autophagy induction [3, 15]?
A: 10.5553%
